Target: LSD-1 enzyme (Homo sapiens (Human), UniProt O60341)
Format: biochemical
Settings: not given
Experimental: Example A: LSD1 Histone Demethylase Biochemical Assay
LANCE LSD1/KDM1A demethylase assay—10 μL of 1 nM LSD-1 enzyme (ENZO BML-SE544-0050) in the assay buffer (50 mM Tris, pH 7.5, 0.01% Tween-20, 25 mM NaCl, 5 mM DTT) were preincubated for 1 hour at 25° C. with 0.8 μL compound/DMSO dotted in black 384 well polystyrene plates. […] Reactions were stopped by addition of 10 μL 1× LANCE Detection Buffer (PerkinElmer CR97-100) supplemented with 1.5 nM Eu-anti-unmodified H3K4 Antibody (PerkinElmer TRF0404), and 225 nM LANCE Ultra Streptavidin (PerkinElmer TRF102) along with 0.9 mM Tranylcypromine-HCl (Millipore 616431). After stopping the reactions plates were incubated for 30 minutes and read on a PHERAstar FS plate reader (BMG Labtech).

SMILES	IC50
CN(C)CC(=O)N1CCC(CN[C@@H]2C[C@H]2c2ccccc2)(Cc2cccc(C#N)c2)CC1 [Example 57, 3-{[1-[(dimethylamino)acetyl]-4-({[(1R,2S)-2-phenylcyclopropyl]amino}methyl)piperidin-4-yl]methyl}benzonitrile]	< 100 nM

Same assay, conditions: 1 nM LSD-1 enzyme, 1 hour preincubation at 25° C., Biotin-labeled Histone H3 peptide substrate

SMILES	IC50
N#CC1(c2ccc(CC3(CN[C@@H]4C[C@H]4c4ccccc4)CCN(CCC(=O)O)CC3)cc2)CC1 [Example 26, 3-[4-[4-(1-cyanocyclopropyl)benzyl]-4-({[(1R,2S)-2-phenylcyclopropyl]amino}methyl)piperidin-1-yl]propanoic Acid]	< 100 nM
O=C(O)CCN1CCC(CN[C@@H]2C[C@H]2c2ccccc2)(COc2ccc(F)cc2)CC1 [Example 39, 3-[4-[(4-fluorophenoxy)methyl]-4-({[(1R,2S)-2-phenylcyclopropyl]amino}methyl)piperidin-1-yl]propanoic Acid]	< 100 nM
COCC1(CN[C@@H]2C[C@H]2c2ccccc2)CCN(C(=O)CN2CCOCC2)CC1 [Example 61, (1R,2S)—N-{[4-(methoxymethyl)-1-(morpholin-4-ylacetyl)piperidin-4-yl]methyl}-2-phenylcyclopropanamine]	< 100 nM
Fc1ccc(CC2(CN[C@H]3C[C@@H]3c3ccccc3)CCNCC2)cc1 [Example 12, (1S,2R)—N-{[4-(4-fluorobenzyl)piperidin-4-yl]methyl}-2-phenylcyclopropanamine]	< 100 nM
CN(C)C(=O)N1CCC(CC#N)(CN[C@@H]2C[C@H]2c2ccccc2)CC1 (relative stereo) [Example 3, 4-(Cyanomethyl)-N,N-dimethyl-4-{[(trans-2-phenylcyclopropyl)amino]methyl}piperidine-1-carboxamide]	< 100 nM
COCC1(CN[C@@H]2C[C@H]2c2ccccc2)CCN(CCC(=O)N(C)C)CC1 [Example 23, 3-[4-(methoxymethyl)-4-({[(1R,2S)-2-phenylcyclopropyl]amino}methyl)piperidin-1-yl]-N,N-dimethylpropanamide]	< 100 nM
COc1cccc(CC2(CN[C@@H]3C[C@H]3c3ccccc3)CCN(CCC(=O)O)CC2)c1 [Example 59, 3-[4-(3-methoxybenzyl)-4-({[(1R,2S)-2-phenylcyclopropyl]amino}methyl)piperidin-1-yl]propanoic Acid]	< 100 nM
CS(=O)(=O)N1CCC(CC#N)(CN[C@@H]2C[C@H]2c2ccccc2)CC1 (relative stereo) [Example 4, (1-(Methylsulfonyl)-4-{[(trans-2-phenylcyclopropyl)amino]methyl}piperidin-4-yl)acetonitrile]	< 100 nM
O=C(O)c1cccc(CC2(CN[C@@H]3C[C@H]3c3ccccc3)CCN(Cc3ccccn3)CC2)c1 [Example 32, 3-{[4-({[(1R,2S)-2-phenylcyclopropyl]amino}methyl)-1-(pyridin-2-ylmethyl)piperidin-4-yl]methyl}benzoic Acid]	< 100 nM
O=C(O)CCN1CCC(CN[C@@H]2C[C@H]2c2ccccc2)(COc2cccc(F)c2)CC1 [Example 38, 3-[4-[(3-fluorophenoxy)methyl]-4-({[(1R,2S)-2-phenylcyclopropyl]amino}methyl)piperidin-1-yl]propanoic Acid]	< 100 nM
COCC1(CN[C@@H]2C[C@H]2c2ccccc2)CCN(CCC(=O)O)CC1 [Example 22, 3-[4-(methoxymethyl)-4-({[(1R,2S)-2-phenylcyclopropyl]amino}methyl)piperidin-1-yl]propanoic Acid]	< 100 nM
O=C(O)CCN1CCC(CN[C@@H]2C[C@H]2c2ccccc2)(Cc2cccc(F)c2F)CC1 [Example 19, 3-[4-(2,3-difluorobenzyl)-4-({[(1R,2S)-2-phenylcyclopropyl]amino}methyl)piperidin-1-yl]propanoic Acid]	< 100 nM
COc1ccc(CC2(CN[C@@H]3C[C@H]3c3ccccc3)CCN(CCC(=O)O)CC2)cc1 [Example 55, 3-[4-(4-methoxybenzyl)-4-({[(1R,2S)-2-phenylcyclopropyl]amino}methyl)piperidin-1-yl]propanoic Acid]	< 100 nM
N#CCC1(CN[C@@H]2C[C@H]2c2ccccc2)CCNCC1 (relative stereo) [Example 6, (4-{[(trans-2-Phenylcyclopropyl)amino]methyl}piperidin-4-yl)acetonitrile]	< 100 nM
CCN1CCC(CN[C@@H]2C[C@H]2c2ccccc2)(Cc2cccc(C(=O)O)c2)CC1 [Example 29, 3-{[1-ethyl-4-({[(1R,2S)-2-phenylcyclopropyl]amino}methyl)piperidin-4-yl]methyl}benzoic Acid]	< 100 nM
O=C(O)c1cccc(CC2(CN[C@@H]3C[C@H]3c3ccccc3)CCN(CC3CC3)CC2)c1 [Example 30, 3-{[1-(cyclopropylmethyl)-4-({[(1R,2S)-2-phenylcyclopropyl]amino}methyl)piperidin-4-yl]methyl}benzoic Acid]	< 100 nM
O=C(O)CCN1CCC(CN[C@@H]2C[C@H]2c2ccccc2)(COCc2ccccc2)CC1 [Example 40, 3-[4-[(benzyloxy)methyl]-4-({[(1R,2S)-2-phenylcyclopropyl]amino}methyl)piperidin-1-yl]propanoic Acid]	< 100 nM
Fc1ccc(CC2(CN[C@@H]3C[C@H]3c3ccccc3)CCNCC2)cc1 [Example 11, (1R,2S)—N-{[4-(4-fluorobenzyl)piperidin-4-yl]methyl}-2-phenylcyclopropanamine]	< 100 nM
O=C(O)CCN1CCC(CN[C@@H]2C[C@H]2c2ccccc2)(COc2ccc(F)cn2)CC1 [Example 45, 3-[4-{[(5-fluoropyridin-2-yl)oxy]methyl}-4-({[(1R,2S)-2-phenylcyclopropyl]amino}methyl)piperidin-1-yl]propanoic Acid]	< 100 nM
N#Cc1ccc(OCC2(CN[C@@H]3C[C@H]3c3ccccc3)CCN(CCC(=O)O)CC2)cc1 [Example 44, 3-[4-[(4-cyanophenoxy)methyl]-4-({[(1R,2S)-2-phenylcyclopropyl]amino}methyl)piperidin-1-yl]propanoic Acid]	< 100 nM
O=C(O)CCN1CCC(CN[C@@H]2C[C@H]2c2ccccc2)(COC2CCCCC2)CC1 [Example 53, 3-[4-[(cyclohexyloxy)methyl]-4-({[(1R,2S)-2-phenylcyclopropyl]amino}methyl)piperidin-1-yl]propanoic Acid]	< 100 nM
CN1CCC(CN[C@@H]2C[C@H]2c2ccccc2)(Cc2cccc(C(=O)O)c2)CC1 [Example 28, 3-{[1-methyl-4-({[(1R,2S)-2-phenylcyclopropyl]amino}methyl)piperidin-4-yl]methyl}benzoic Acid]	< 100 nM
CN(C)CC(=O)N1CCC(CN[C@@H]2C[C@H]2c2ccccc2)(Cc2cccc(C(N)=O)c2)CC1 [Example 58, 3-{[1-[(dimethylamino)acetyl]-4-({[(1R,2S)-2-phenylcyclopropyl]amino}methyl)piperidin-4-yl]methyl}benzamide]	< 100 nM
O=C(O)c1cccc(CC2(CN[C@@H]3C[C@H]3c3ccccc3)CCN(C3CCOCC3)CC2)c1 [Example 31, 3-{[4-({[(1R,2S)-2-phenylcyclopropyl]amino}methyl)-1-(tetrahydro-2H-pyran-4-yl)piperidin-4-yl]methyl}benzoic Acid]	< 100 nM
CN(C)C(=O)CCN1CCC(CN[C@@H]2C[C@H]2c2ccccc2)(Cc2ccc(F)cc2)CC1 [Example 10, 3-[4-(4-fluorobenzyl)-4-({[(1R,2S)-2-phenylcyclopropyl]amino}methyl)piperidin-1-yl]-N,N-dimethylpropanamide]	< 100 nM
Cn1cc(-c2cccc(CC3(CN[C@@H]4C[C@H]4c4ccccc4)CCN(CCC(=O)O)CC3)c2)cn1 [Example 27, 3-[4-[3-(1-methyl-1H-pyrazol-4-yl)benzyl]-4-({[(1R,2S)-2-phenylcyclopropyl]amino}methyl)piperidin-1-yl]propanoic Acid]	< 100 nM
